Results reported in US8614327B2 (Vertex Pharmaceuticals Incorporated, priority 2004, dated 2013).

Target: T1, ΔF508-CFTR (Homo sapiens, UniProt P13569, DEL508-508)
T1 construct: expressed in transfected cells
Test: Membrane potential optical (FRET/VIPR) assay, identification of potentiator compounds
Format: cell-based
Conditions: Table 3, assay not given; for % Activity: relative efficacy
In short: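 NIH3T3 mouse fibroblasts stably expressing ΔF508-CFTR, temperature-corrected 24 h at 27° C., read on VIPR by FRET between CC2-DMPE and DiSBAC2(3). Potentiators identified in a double-addition format, first adding chloride-free (gluconate) medium with or without compound.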

T1 sequence (P13569 with tags, fused parts or gaps DEL508-508): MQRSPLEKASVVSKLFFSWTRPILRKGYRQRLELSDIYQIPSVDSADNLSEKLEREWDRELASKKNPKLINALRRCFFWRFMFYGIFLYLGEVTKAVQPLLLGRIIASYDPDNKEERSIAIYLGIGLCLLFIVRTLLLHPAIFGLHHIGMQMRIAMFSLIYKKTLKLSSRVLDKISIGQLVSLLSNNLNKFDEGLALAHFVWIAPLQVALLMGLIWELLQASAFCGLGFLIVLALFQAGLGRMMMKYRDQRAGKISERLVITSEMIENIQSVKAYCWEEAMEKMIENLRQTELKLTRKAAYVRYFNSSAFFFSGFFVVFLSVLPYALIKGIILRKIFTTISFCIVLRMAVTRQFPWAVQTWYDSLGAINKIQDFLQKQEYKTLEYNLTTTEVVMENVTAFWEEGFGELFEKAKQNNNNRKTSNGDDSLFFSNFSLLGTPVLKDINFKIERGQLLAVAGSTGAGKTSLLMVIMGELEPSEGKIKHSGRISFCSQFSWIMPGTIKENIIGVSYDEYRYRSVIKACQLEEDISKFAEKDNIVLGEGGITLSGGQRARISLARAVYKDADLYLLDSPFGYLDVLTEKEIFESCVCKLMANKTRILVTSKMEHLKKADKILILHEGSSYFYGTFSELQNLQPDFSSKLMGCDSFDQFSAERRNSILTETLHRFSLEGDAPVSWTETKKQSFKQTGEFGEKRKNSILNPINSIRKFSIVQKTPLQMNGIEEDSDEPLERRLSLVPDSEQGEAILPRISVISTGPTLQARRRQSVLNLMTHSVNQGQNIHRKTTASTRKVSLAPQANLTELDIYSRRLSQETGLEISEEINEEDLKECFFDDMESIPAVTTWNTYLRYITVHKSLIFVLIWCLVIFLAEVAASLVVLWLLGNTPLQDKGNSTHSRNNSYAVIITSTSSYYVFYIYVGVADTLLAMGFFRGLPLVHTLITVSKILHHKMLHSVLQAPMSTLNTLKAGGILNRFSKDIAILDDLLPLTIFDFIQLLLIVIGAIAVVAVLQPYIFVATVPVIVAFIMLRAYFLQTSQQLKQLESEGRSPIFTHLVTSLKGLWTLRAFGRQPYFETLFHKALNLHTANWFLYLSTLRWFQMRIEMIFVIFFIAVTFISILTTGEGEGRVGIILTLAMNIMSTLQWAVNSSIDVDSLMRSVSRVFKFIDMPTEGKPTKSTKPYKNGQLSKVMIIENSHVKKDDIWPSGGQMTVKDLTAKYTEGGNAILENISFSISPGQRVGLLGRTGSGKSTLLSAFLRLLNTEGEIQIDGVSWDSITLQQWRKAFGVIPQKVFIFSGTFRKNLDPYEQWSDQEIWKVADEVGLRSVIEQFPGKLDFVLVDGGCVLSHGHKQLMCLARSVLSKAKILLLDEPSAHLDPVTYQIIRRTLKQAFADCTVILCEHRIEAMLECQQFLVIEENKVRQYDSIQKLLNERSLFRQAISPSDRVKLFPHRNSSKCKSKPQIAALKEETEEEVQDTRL

Structure (SMILES) | EC50 [µM] | % Activity
O=C(Nc1cccc(SC(F)(F)F)c1)c1c[nH]c2ccccc2c1=O [Compound 456, 4-oxo-N-[3-(trifluoromethylsulfanyl)phenyl]-1H-quinoline-3-carboxamide] | < 10 | ++ (between 25% to 100%)
Cc1cc(C(C)(C)C)c(O)cc1NC(=O)c1c[nH]c2cccc(O)c2c1=O [Compound 588, 5-hydroxy-N-(5-hydroxy-2-methyl-4-tert-butyl-phenyl)-4-oxo-1H-quinoline-3-carboxamide] | < 10 | ++ (between 25% to 100%)
O=C(Nc1ccc2cc[nH]c2c1)c1c[nH]c2ccccc2c1=O [Compound 33, N-(1H-indol-6-yl)-4-oxo-1H-quinoline-3-carboxamide] | < 10 | ++ (between 25% to 100%)
O=C(Nc1ccc(N2CCOCC2)cc1C(F)(F)F)c1c[nH]c2ccccc2c1=O [Compound 598, N-[4-morpholino-2-(trifluoromethyl)phenyl]-4-oxo-1H-quinoline-3-carboxamide] | < 10 | +++ (>100%)
CC(C)(C)c1ccccc1NC(=O)c1c[nH]c2ccccc2c1=O [Compound 90, 4-oxo-N-(2-tert-butylphenyl)-1H-quinoline-3-carboxamide] | < 10 | ++ (between 25% to 100%)
O=C(Nc1ccccc1-c1nc(-c2ccc(Cl)cc2)no1)c1c[nH]c2ccccc2c1=O [Compound 102, N-[2-[3-(4-chlorophenyl)-1,2,4-oxadiazol-5-yl]phenyl]-4-oxo-1H-quinoline-3-carboxamide] | 10 to 25 | ++ (between 25% to 100%)
CCOc1ccccc1-c1cc2cc[nH]c2cc1NC(=O)c1c[nH]c2ccccc2c1=O [Compound 327, N-[5-(2-ethoxyphenyl)-1H-indol-6-yl]-4-oxo-1H-quinoline-3-carboxamide] | < 10 | ++ (between 25% to 100%)
O=C(Nc1cc(O)cc(C(F)(F)F)c1)c1c[nH]c2ccc(F)cc2c1=O [Compound 574, 6-fluoro-N-[3-hydroxy-5-(trifluoromethyl)phenyl]-4-oxo-1H-quinoline-3-carboxamide] | < 10 | ++ (between 25% to 100%)
CC(C)N1CCN(c2ccc(NC(=O)c3c[nH]c4ccccc4c3=O)c(C(F)(F)F)c2)CC1 [Compound 639, N-[4-(4-isopropylpiperazin-1-yl)-2-(trifluoromethyl)phenyl]-4-oxo-1H-quinoline-3-carboxamide] | < 10 | ++ (between 25% to 100%)
CCC(C)c1ccc(NC(=O)c2c[nH]c3ccccc3c2=O)cc1 (centres unmarked) [Compound 310, 4-oxo-N-(4-sec-butylphenyl)-1H-quinoline-3-carboxamide] | < 10 | ++ (between 25% to 100%)
CCOc1ccc(NC(C)=O)cc1NC(=O)c1c[nH]c2ccccc2c1=O [Compound 132, N-(5-acetylamino-2-ethoxy-phenyl)-4-oxo-1H-quinoline-3-carboxamide] | 25 to 60 | + (<25%)
CC(C)(C)OC(=O)[C@H]1CCCN1c1ccc(NC(=O)c2c[nH]c3ccccc3c2=O)c(C(F)(F)F)c1 [Compound 540, (R)-tert-butyl 1-(4-(4-oxo-1,4-dihydroquinoline-3-carboxamido)-3-(trifluoromethyl)phenyl)pyrrolidine-2-carboxylate] | < 10 | +++ (>100%)
CC(C)c1cccc(C(C)C)c1NC(=O)c1c[nH]c2ccccc2c1=O [Compound 466, N-(2,6-diisopropylphenyl)-4-oxo-1H-quinoline-3-carboxamide] | < 10 | ++ (between 25% to 100%)

The next lines start with the values.

EC50 [µM] | % Activity | Structure (SMILES)
< 10 | ++ (between 25% to 100%) | COc1cccc(OC)c1-c1cc2cc[nH]c2cc1NC(=O)c1c[nH]c2ccccc2c1=O [Compound 404, N-[5-(2,6-dimethoxyphenyl)-1H-indol-6-yl]-4-oxo-1H-quinoline-3-carboxamide]
< 10 | ++ (between 25% to 100%) | CC(C)(C)c1cc(C(C)(C)C)c(NC(=O)c2c[nH]c3ccc(O)cc3c2=O)cc1O [Compound 702, 6-hydroxy-N-(5-hydroxy-2,4-ditert-butyl-phenyl)-4-oxo-1H-quinoline-3-carboxamide]
< 10 | ++ (between 25% to 100%) | N#Cc1cc2ccc(NC(=O)c3c[nH]c4ccccc4c3=O)cc2[nH]1 [Compound 270, N-(2-cyano-1H-indol-6-yl)-4-oxo-1H-quinoline-3-carboxamide]
< 10 | ++ (between 25% to 100%) | CCOC(=O)NCC(C)(C)c1ccc(NC(=O)c2c[nH]c3ccccc3c2=O)cc1 [Compound 119, [2-methyl-2-[4-[(4-oxo-1H-quinolin-3-yl)carbonylamino]phenyl]-propyl]aminoformic acid ethyl ester]
– | ++ (between 25% to 100%) | O=C(Nc1ccc(C2CCCCC2)cc1)c1c[nH]c2ccccc2c1=O [Compound 140, N-(4-cyclohexylphenyl)-4-oxo-1H-quinoline-3-carboxamide]
< 10 | ++ (between 25% to 100%) | CC(C)(C)c1ccc(NC(=O)c2c[nH]c3ccccc3c2=O)c(Cl)c1 [Compound 362, N-(2-chloro-4-tert-butyl-phenyl)-4-oxo-1H-quinoline-3-carboxamide]
– | ++ (between 25% to 100%) | CN(C)c1cc(NC(=O)c2c[nH]c3ccccc3c2=O)ccc1C(C)(C)C [Compound 485, N-(3-Dimethylamino-4-tert-butyl-phenyl)-4-oxo-1H-quinoline-3-carboxamide]
< 10 | ++ (between 25% to 100%) | CCc1c[nH]c2cc(NC(=O)c3c[nH]c4ccccc4c3=O)ccc12 [Compound 383, N-(3-ethyl-1H-indol-6-yl)-4-oxo-1H-quinoline-3-carboxamide]
< 10 | ++ (between 25% to 100%) | CC(C)(C)OC(=O)Nc1ccc(NC(=O)c2c[nH]c3ccccc3c2=O)c(C(F)(F)F)c1 [Compound 600, tert-butyl [[4-[(4-oxo-1H-quinolin-3-yl)carbonylamino]-3-(trifluoromethyl)phenyl]amino]formate]
< 10 | ++ (between 25% to 100%) | CC(C)(C)c1cc2cc[nH]c2cc1NC(=O)c1c[nH]c2ccccc2c1=O [Compound 381, 4-oxo-N-(5-tert-butyl-1H-indol-6-yl)-1H-quinoline-3-carboxamide]
< 10 | ++ (between 25% to 100%) | O=C(Nc1ccccc1-c1ccccc1Oc1ccccc1)c1c[nH]c2ccccc2c1=O [Compound 247, 4-oxo-N-[2-(2-phenoxyphenyl)phenyl]-1H-quinoline-3-carboxamide]
< 10 | ++ (between 25% to 100%) | CC1(C)CCCNc2cc(NC(=O)c3c[nH]c4ccccc4c3=O)ccc21 [Compound 35, 1,4-dihydro-N-(2,3,4,5-tetrahydro-5,5-dimethyl-1H-benzo[b]azepin-8-yl)-4-oxoquinoline-3-carboxamide]
< 10 | ++ (between 25% to 100%) | CCCc1ccc(NC(=O)c2c[nH]c3ccccc3c2=O)cc1NC(=O)OC [Compound 221, [5-[(4-oxo-1H-quinolin-3-yl)carbonylamino]-2-propyl-phenyl]aminoformic acid methyl ester]
